Measurements published in publication PMC11643494, “Structure–Activity Relationship Studies in a Series of 2-Aryloxy-N-(pyrimidin-5-yl)acetamide Inhibitors of SLACK Potassium Channels” (Molecules, 2024).

Target: T1, WT human SLACK (Homo sapiens, UniProt Q5JUK3)
T1 construct: host or cells: CHO-K1
T1 sequence (Q5JUK3 1-1235 isoform Q5JUK3-3): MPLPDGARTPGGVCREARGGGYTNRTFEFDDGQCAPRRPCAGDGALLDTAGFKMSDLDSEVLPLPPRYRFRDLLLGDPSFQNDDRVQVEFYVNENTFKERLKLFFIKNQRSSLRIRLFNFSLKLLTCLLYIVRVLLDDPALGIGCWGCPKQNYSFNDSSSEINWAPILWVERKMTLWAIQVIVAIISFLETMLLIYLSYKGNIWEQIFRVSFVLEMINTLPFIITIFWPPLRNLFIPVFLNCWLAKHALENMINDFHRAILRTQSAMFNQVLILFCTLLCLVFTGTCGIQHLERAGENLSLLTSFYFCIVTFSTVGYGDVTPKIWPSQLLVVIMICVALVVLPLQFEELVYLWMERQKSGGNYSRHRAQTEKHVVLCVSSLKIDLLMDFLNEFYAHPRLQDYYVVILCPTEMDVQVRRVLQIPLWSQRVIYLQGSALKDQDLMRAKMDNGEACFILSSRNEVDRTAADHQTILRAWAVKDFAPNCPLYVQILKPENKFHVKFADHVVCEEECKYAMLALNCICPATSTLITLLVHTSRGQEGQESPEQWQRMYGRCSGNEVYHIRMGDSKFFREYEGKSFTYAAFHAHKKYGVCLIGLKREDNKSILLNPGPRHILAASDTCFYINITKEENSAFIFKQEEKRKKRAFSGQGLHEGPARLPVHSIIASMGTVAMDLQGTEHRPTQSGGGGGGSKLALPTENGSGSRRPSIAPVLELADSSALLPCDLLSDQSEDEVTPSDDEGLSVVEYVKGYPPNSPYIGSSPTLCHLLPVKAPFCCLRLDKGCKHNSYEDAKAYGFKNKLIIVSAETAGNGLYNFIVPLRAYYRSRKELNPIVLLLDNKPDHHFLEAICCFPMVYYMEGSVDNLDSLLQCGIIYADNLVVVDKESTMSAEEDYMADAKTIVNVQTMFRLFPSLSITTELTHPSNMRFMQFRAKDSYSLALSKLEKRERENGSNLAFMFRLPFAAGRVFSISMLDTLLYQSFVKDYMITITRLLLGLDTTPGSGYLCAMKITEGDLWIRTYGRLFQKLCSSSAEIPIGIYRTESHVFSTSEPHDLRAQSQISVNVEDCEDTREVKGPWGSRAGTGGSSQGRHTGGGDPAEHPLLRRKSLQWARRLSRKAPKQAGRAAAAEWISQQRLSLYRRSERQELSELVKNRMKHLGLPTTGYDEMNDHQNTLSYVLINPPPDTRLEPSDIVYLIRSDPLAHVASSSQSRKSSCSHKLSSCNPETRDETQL
Experiment: Whole-cell automated patch clamp (APC) in CHO-K1 cells stably expressing WT human SLACK
Format: cell-based
Settings: for IC50: APC, CHO-K1 cells stably expressing WT human SLACK, averages (n ≥ 3); for SLACK Imax: maximum inhibition at 30 µM test compound standardized to VU0606170 (set at 100%), WT human SLACK
Experimental: Using concentrations ranging from 0.125 to 30 µM in half-log steps, a concentration–response relationship was generated for each new analog using our APC assay in CHO-K1 cells stably expressing WT SLACK. A minimum of three cells, i.e., replicates, were collected per concentration for each analog.
Automated patch clamp recording was performed with a SyncroPatch 768 PE system (Nanion, Munich, Germany) as previously described. Whole-cell recordings were performed at room temperature. Cells were harvested by first washing with PBS without Mg^2+ or Ca^2+ (Gibco, Billings, MT, USA) to remove cell culture medium, followed by dissociation with TryPLE (Gibco, Billings, MT, USA). Cells were then resuspended and diluted to 200,000 cells/mL in external solution. External solution contained 105 mM NaCl, 4 mM KCl, 1 mM MgCl2, 5 mM CaCl2, 10 mM HEPES, 40 mM N-Methyl-D-glucamine chloride, titrated to pH 7.4 with NaOH and osmolarity of 300 mOsm/kg; internal solution contained 70 mM NaCl, 70 mM KF, 10 mM KCl, 5 mM EGTA, 5mM HEPES, titrated to a pH 7.2 with KOH and osmolarity of 295 mOsm/kg.
The APC protocol was set as following: Cells were held at […] −80 mV for 100 ms, then a ramp protocol was performed from −100 mV to 80 mV at 0.4 mV/ms, hold the cell at −80 mV for another 100 ms, then steps were performed at −20 mV, 0 mV, +20 mV, +40 mV, and +60 mV for 100 ms of each step. Whole-cell currents were measured at 0 mV and normalized to current after external buffer addition.

Compound | IC50 | SLACK Imax | Fold improvement in potency relative to 10 (WT SLACK APC IC50)
CN(c1ccc(C#N)cc1)c1ncc(NC(=O)C(C)(C)Oc2ccc(Cl)cc2)cn1 [Analog 66] | 910 nM | 95% | 
CC(C)(Oc1ccc(Cl)cc1)C(=O)Nc1cnc(Oc2c(F)cccc2F)nc1 [Analog 40] | 520 nM | 98% | ~3 fold
